Assay: In vitro for the binding affinity against sigma receptor by using [3H]DTG as radioligand in guinea pig cerebellum

Point of comparison: `CCCN1CC[C@H]2c3ccccc3CC[C@H]2C1`, IC50 2.6 nM. Against it:
- CCCN1CCC2=C(CCc3ccccc32)C1 — 8.1-fold higher, 21 nM
- CCCCN1CCC2c3ccccc3CCCC2C1 (centres undefined) — within 1.5-fold, 2.1 nM
- c1coc(CN2CC[C@H]3c4ccccc4CC[C@H]3C2)c1 — 2.5-fold higher, 6.6 nM
- Clc1ccc(CN2CC[C@H]3c4ccccc4CC[C@H]3C2)cc1 — 1.8-fold higher, 4.7 nM
- CCCCN1CCC2=C(Cc3ccccc32)C1 — within 1.5-fold, 1.9 nM
- c1ccc(CCCN2CC[C@H]3c4ccccc4CC[C@H]3C2)cc1 — 1.7-fold higher, 4.3 nM
- c1ccc2c(c1)CC[C@H]1CN(C34C[C@H]5C[C@@H](C3)C[C@@H](C4)C5)CC[C@@H]21 — within 1.5-fold, 2.3 nM
- c1ccc2c(c1)CC[C@H]1CN(C3CCCCC3)CC[C@@H]21 — 10-fold lower, 0.251 nM
- c1ccc(CCN2CC[C@H]3c4ccccc4CC[C@H]3C2)cc1 — 8-fold lower, 0.324 nM
- c1csc(CN2CC[C@H]3c4ccccc4CC[C@H]3C2)c1 — 2.7-fold higher, 7.1 nM
- c1ccc(CN2CC[C@H]3c4ccccc4CC[C@H]3C2)nc1 — 6.5-fold higher, 17 nM
- c1ccc2c(c1)CC[C@H]1CN(CC3CC3)CC[C@@H]21 — within 1.5-fold, 2.5 nM
- CCCCN1CC[C@H]2c3cc(C)cc(C)c3CC[C@H]2C1 — within 1.5-fold, 2 nM
- c1ccc2c(c1)CC[C@H]1CN(Cc3ccc4ccccc4c3)CC[C@@H]21 — 31-fold higher, 81 nM
- CCCCN1CC[C@@H]2c3ccccc3CC[C@H]2C1 — within 1.5-fold, 3.1 nM
- C=CCN1CC[C@H]2c3ccccc3CC[C@H]2C1 — 1.8-fold higher, 4.6 nM
- CCCCN1CCC2c3ccccc3CC2C1 (centres undefined) — 4.2-fold higher, 11 nM
- CN1CC[C@@H]2c3ccccc3CC[C@H]2C1 — 170-fold higher, 447 nM
- CCCCN1CC[C@H]2c3ccccc3CC[C@H]2C1 — 2.4-fold higher, 6.3 nM
- O=[N+]([O-])c1ccc(CN2CC[C@H]3c4ccccc4CC[C@H]3C2)cc1 — 3.3-fold higher, 8.7 nM
- COc1ccc(CN2CC[C@H]3c4ccccc4CC[C@H]3C2)cc1 — within 1.5-fold, 2 nM
- CN1CC[C@H]2c3ccccc3CC[C@H]2C1 — 130-fold higher, 339 nM
- c1ccc2c(c1)CC[C@H]1CN(C3[C@H]4C[C@@H]5C[C@@H](C[C@H]3C5)C4)CC[C@@H]21 (some centres undefined) — within 1.5-fold, 2.2 nM
